Values of other authors as cited in patent US6559165B1, “Methods for treating bulimia using optically pure (−) norcisapride” (priority 1998, dated 2003).

Columns and labels:
[1] = co-administration with ketoconazole

SMILES: COc1cc(N)c(Cl)cc1C(=O)N[C@H]1CCN(CCCOc2ccc(F)cc2)C[C@H]1OC (racemic) [(±) Cisapride, cis-4-amino-5-chloro-N-[1-[3-(4-fluorophenoxy)propyl]-3-methoxy-4-piperidinyl]-2-methoxybenzamide]
- portion of dose metabolized (humans, oxidative N-dealkylation or aromatic hydroxylation): More than 90%
- bioavailability (oral administration to humans, rapid first-pass metabolism in the liver): 40-50%
- increase of steady-state plasma levels [1]: 8 fold
